According to ChEMBL document CHEMBL4706531, “Discovery of Novel c-Mesenchymal-Epithelia transition factor and histone deacetylase dual inhibitors” (Eur J Med Chem, 2020):

Columns and labels:
HCT-116 = test: cells; format: functional, cell-based; details: Homo sapiens, HCT-116, 72 h
Description: Antiproliferative activity against human HCT-116 cells assessed as inhibition of cell proliferation measured after 72 hrs by MTT assay

MCF7 = test: cells; format: functional, cell-based; details: Homo sapiens, MCF7, 72 h
Description: Antiproliferative activity against human MCF7 cells assessed as inhibition of cell proliferation measured after 72 hrs by MTT assay

A549 = test: cells; format: functional, cell-based; details: Homo sapiens, A549, 72 h
Description: Antiproliferative activity against human A549 cells assessed as inhibition of cell proliferation measured after 72 hrs by MTT assay

Histone deacetylase 1 [1] = biological target: T1, Histone deacetylase 1 (Homo sapiens, UniProt Q13547); details: Sf9, dose 100.0 nM, time 75.0 min
T1 sequence (Q13547 whole entry): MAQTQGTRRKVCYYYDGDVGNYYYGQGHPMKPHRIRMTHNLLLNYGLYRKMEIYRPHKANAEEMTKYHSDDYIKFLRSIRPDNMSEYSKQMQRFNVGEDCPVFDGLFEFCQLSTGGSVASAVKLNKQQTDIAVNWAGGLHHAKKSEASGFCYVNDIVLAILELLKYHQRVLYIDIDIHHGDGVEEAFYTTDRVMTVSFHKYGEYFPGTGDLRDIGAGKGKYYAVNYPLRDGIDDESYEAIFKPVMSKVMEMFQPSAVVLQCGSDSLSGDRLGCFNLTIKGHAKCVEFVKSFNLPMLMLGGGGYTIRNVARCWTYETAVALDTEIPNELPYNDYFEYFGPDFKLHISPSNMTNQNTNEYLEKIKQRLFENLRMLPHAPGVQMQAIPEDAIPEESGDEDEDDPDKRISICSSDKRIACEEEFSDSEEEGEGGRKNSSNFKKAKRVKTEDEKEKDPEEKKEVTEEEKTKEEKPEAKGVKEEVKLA

[2] = biological target: T2, Hepatocyte growth factor receptor (Homo sapiens, UniProt P08581); details: dose 100.0 nM, time 10.0 min
T2 sequence (P08581 whole entry): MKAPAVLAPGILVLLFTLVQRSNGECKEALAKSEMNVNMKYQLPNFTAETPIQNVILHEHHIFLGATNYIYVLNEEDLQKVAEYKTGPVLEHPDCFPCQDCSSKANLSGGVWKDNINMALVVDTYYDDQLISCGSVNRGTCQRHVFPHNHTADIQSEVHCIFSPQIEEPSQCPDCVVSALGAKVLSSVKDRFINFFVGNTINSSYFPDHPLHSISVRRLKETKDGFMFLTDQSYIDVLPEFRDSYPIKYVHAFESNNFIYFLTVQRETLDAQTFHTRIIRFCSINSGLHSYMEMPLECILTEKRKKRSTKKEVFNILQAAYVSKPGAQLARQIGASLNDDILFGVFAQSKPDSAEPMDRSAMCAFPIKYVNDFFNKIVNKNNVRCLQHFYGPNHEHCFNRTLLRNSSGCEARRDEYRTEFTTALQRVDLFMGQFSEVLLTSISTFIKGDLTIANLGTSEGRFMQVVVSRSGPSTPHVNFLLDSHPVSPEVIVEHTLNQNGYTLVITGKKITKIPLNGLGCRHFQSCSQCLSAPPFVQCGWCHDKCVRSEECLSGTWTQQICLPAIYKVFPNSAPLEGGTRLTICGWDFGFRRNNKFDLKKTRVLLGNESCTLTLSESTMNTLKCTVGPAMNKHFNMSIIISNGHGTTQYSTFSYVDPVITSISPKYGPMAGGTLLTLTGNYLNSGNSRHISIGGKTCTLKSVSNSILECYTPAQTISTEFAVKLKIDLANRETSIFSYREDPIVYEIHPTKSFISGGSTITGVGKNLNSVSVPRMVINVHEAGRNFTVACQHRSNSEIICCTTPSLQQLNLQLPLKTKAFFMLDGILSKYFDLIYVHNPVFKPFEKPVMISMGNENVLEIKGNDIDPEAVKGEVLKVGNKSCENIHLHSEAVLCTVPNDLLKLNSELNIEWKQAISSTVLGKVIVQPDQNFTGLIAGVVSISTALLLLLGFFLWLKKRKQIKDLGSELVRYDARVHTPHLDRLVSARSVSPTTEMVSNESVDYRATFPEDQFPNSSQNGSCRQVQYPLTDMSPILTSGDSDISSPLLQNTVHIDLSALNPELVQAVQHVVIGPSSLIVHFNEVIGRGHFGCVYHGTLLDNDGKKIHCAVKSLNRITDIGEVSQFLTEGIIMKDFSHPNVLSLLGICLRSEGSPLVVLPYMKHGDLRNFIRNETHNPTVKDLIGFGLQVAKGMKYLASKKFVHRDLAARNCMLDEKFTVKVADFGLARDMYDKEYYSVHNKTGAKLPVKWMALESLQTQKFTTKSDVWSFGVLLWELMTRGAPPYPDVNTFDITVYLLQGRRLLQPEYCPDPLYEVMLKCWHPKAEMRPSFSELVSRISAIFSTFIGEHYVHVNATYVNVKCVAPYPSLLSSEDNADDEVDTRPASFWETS

[3] = biological target: T2, Hepatocyte growth factor receptor; test: Inhibition of c-MET(unknown origin) using FAM labelled peptide substrate preincubated for 10 mins followed by substrate addition and measured by microplate reader method
Histone deacetylase 1 [4] = biological target: T1, Histone deacetylase 1; test: Inhibition of human C-terminal Flag tagged HDAC1 (1 to 482 residues) expressed in SF9 cells using Ac-peptide substrate preincubated for 15 mins followed by substrate addition and measured after 60 mins by microplate reader method

| Compound | IC50 (HCT-116) [nM] | IC50 (MCF7) [nM] | IC50 (A549) [nM] | inhibition (Histone deacetylase 1 [1]) [%] | inhibition [2] [%] | IC50 [3] [nM] | IC50 (Histone deacetylase 1 [4]) [nM] |
| --- | --- | --- | --- | --- | --- | --- | --- |
| COc1cc2c(Oc3ccc(NC(=O)c4nn(-c5ccccc5C)ccc4=O)cc3)ccnc2cc1OCCCCCC(=O)NO | 700 | 4360 | 3920 | 62.1 | 90.4 | – | – |
| COc1cc2c(Oc3ccc(NC(=O)c4nn(-c5ccccc5F)cc(C)c4=O)cc3F)ccnc2cc1OCCCC(=O)NO | 1120 | 2100 | 1370 | 7.1 | 94 | – | – |
| COc1cc2c(Oc3ccc(NC(=O)c4nn(-c5ccccc5)cc(C)c4=O)cc3F)ccnc2cc1OCCCN1CCOCC1 | 370 | 630 | 1120 | – | 93.8 | 7.42 | – |
| COc1cc2c(Oc3ccc(NC(=O)c4nn(-c5ccccc5)cc(C)c4=O)cc3F)ccnc2cc1OCCCC(=O)NO | 660 | 1900 | 1900 | 2.5 | 98.3 | – | – |
| COc1cc2c(Oc3ccc(NC(=O)c4nn(-c5ccc(C)cc5)cc(C)c4=O)cc3)ccnc2cc1OCCCCCCC(=O)NO | 400 | 2560 | 160 | 47.6 | 72.8 | – | – |
| COc1cc2c(Oc3ccc(NC(=O)c4nn(-c5ccccc5F)cc(C)c4=O)cc3)ccnc2cc1OCCCC(=O)NO | 950 | 2650 | 3920 | 9.2 | 90.8 | – | – |
| CCc1cn(-c2ccccc2)nc(C(=O)Nc2ccc(Oc3ccnc4cc(OCCCCCCC(=O)NO)c(OC)cc34)cc2)c1=O | 300 | 1210 | 230 | 86.4 | 78.2 | 14.2 | 34.8 |
| COc1cc2c(Oc3ccc(NC(=O)c4nn(-c5ccccc5C)cc(C)c4=O)cc3)ccnc2cc1OCCCCCCC(=O)NO | 660 | 1830 | 3130 | 89.1 | 78.6 | – | – |
| COc1cc2c(Oc3ccc(NC(=O)c4nn(-c5ccccc5C(F)(F)F)ccc4=O)cc3)ccnc2cc1OCC(=O)NO | 9500 | 6320 | > 20000 | 1.2 | 56.3 | – | – |
| COc1cc2c(Oc3ccc(NC(=O)c4nn(-c5ccccc5)ccc4=O)cc3)ccnc2cc1OCCCC(=O)NO | 940 | 7410 | 9260 | 12.6 | 96.4 | – | – |
| COc1cc2c(Oc3ccc(NC(=O)c4nn(-c5ccc(Cl)c(C(F)(F)F)c5)cc(C)c4=O)cc3)ccnc2cc1OCC(=O)NO | 350 | 3480 | 1590 | 5.2 | 50.2 | – | – |
| COc1cc2c(Oc3ccc(NC(=O)c4nn(-c5cccc(C)c5)cc(C)c4=O)cc3)ccnc2cc1OCCCCCCC(=O)NO | 370 | 1680 | 280 | 62 | 76.5 | – | – |
| COc1cc2c(Oc3ccc(NC(=O)c4nn(-c5ccc(F)c(Cl)c5)cc(C)c4=O)cc3)ccnc2cc1OCCCCCCC(=O)NO | 370 | 2200 | 380 | 40 | 61.1 | – | – |
